# Experimental data reported in article PMC11963559, “Identification of novel thiazole derivatives as flaviviral protease inhibitors effective against Dengue (DENV2) and Japanese encephalitis viruses” (Antimicrobial Agents and Chemotherapy, 2025).
# System: DENV2
# Assay: DENV2 replication in BHK-21 cells, viral RNA by qRT-PCR
# Assay type: cell-based
# Conditions: for SI, selectivity index (CC50/IC50): DENV2, BHK-21 cells, qRT-PCR IC50; for IC50: Dengue virus, DENV2, BHK-21, read-out: IC50, reduction of DENV2 viral RNA
# Description: First, cytotoxic impact of these compounds was evaluated using MTT assay. […] Subsequently, we evaluated the effectiveness of these compounds in inhibiting DENV2 replication. BHK-21 cells were infected with the virus in presence of increasing concentration of these compounds, and harvested at 24 hpi. The virus replication rate was assessed by quantifying the copy number of viral genomic RNA using quantitative real-time PCR (qRT-PCR).
# BHK-21 cells were seeded in a 24-well cell culture plate at a density of (0.25 × 10^6 cells/well) with regular growth medium containing DMEM + 10% FBS 1 day prior to infection in triplicate. Once the cells reached 85%–90% confluence, they were infected with DENV2 and JEV virus inoculum comprising DMEM + 2% FBS and 10 µM of the compound at an MOI of 0.1. Cells were incubated for 1.5 h at 37 °C with the virus-compound inoculum, with gentle rocking every 10 min to ensure even coverage and prevent the cellular monolayer from drying. Finally, the inoculum was replenished with fresh culture media comprising DMEM + 2% FBS and the compound, and then kept in an incubator in a humidified chamber at 37 °C until harvest (18 h). The cell culture supernatant was aspirated and washed with PBS, and the cellular monolayer was used for viral RNA isolation.
# Total cellular RNA was extracted from BHK-21 cells using TRIzol reagent, according to the manufacturer’s instructions (Ambion Life Technologies, USA). RNA quantity and integrity were determined prior to use on a NanoDrop spectrophotometer (Thermo Fisher Scientific). Then, 1 µg of total RNA from each experimental sample was used to synthesize cDNA by reverse transcriptase (RT) by incubating the RNAs with Moloney murine leukemia virus (M-MuLV) RT, with specific RT primer, 5′-[…]-3′ (Tm = 63 °C), and deoxynucleoside triphosphates (dNTPs) (New England Biolabs) at 42 °C for 50 min, followed by inactivation at 70 °C for 15 min.
# To quantify the viral RNA copy number, quantitative RT-PCR (qRT-PCR) was performed in duplicate using iTaq Universal SYBR Green Supermix (Bio-Rad). The cDNAs used for qPCR analysis were prepared using Power SYBR Green PCR Master Mix (Bio-Rad, #172–5125) in a QuantStudio5 Applied Biosystems real-time PCR system. For qPCR amplification of the JEV amplicon size of 202 bp, the sequences of the forward and reverse primer pairs used were 5′-[…]-3′ (Tm = 65 °C) and 5′-[…]-3′ (Tm = 63 °C) and for DENV amplicon of 163 bp, the sequences of the forward and reverse primer pair used were 5′-[…]-3′ (Tm = 61 °C) and 5′-[…]-3′ (Tm = 59 °C). […] Delta Ct for both control and compound-treated samples was determined and subsequently analyzed by determining the delta Ct to determine the mRNA expression of target genes in control vs treated samples.
SMILES,"SI, selectivity index (CC50/IC50)",IC50
COc1ccc(-c2csc(N/N=C(\C)c3ccc(O)cc3)n2)cc1 [3aq],18.35,4.47 ± 0.41 µM
COc1ccc(-c2csc(N/N=C(\C)c3cc(O)cc(O)c3)n2)cc1 [3au],10.38,7.38 ± 0.6 µM
